According to article PMC6515238, “Novel C-2 Symmetric Molecules as α-Glucosidase and α-Amylase Inhibitors: Design, Synthesis, Kinetic Evaluation, Molecular Docking and Pharmacokinetics” (Molecules, 2019):

Columns and labels:
[1] = system: maltase; set-up: method as in PMID 28482265; conditions: cited from earlier work
[2] = system: isomaltase; set-up: method as in PMID 28482265; conditions: cited from earlier work
[3] = system: glucoamylase; set-up: method as in PMID 28482265; conditions: cited from earlier work
[4] = biological target: T1, α-amylase from porcine pancreas (Sus scrofa, UniProt P00690); assay: α-Amylase inhibition assay; type: biochemical; conditions: mean ± SEM; starch substrate, DNSA
T1 construct: α-amylase from porcine pancreas (Sigma A3176-500KU, 089K1661); purchased Sigma A3176-500KU (lot 089K1661); host or cells: porcine pancreas
T1 sequence (P00690 16-511): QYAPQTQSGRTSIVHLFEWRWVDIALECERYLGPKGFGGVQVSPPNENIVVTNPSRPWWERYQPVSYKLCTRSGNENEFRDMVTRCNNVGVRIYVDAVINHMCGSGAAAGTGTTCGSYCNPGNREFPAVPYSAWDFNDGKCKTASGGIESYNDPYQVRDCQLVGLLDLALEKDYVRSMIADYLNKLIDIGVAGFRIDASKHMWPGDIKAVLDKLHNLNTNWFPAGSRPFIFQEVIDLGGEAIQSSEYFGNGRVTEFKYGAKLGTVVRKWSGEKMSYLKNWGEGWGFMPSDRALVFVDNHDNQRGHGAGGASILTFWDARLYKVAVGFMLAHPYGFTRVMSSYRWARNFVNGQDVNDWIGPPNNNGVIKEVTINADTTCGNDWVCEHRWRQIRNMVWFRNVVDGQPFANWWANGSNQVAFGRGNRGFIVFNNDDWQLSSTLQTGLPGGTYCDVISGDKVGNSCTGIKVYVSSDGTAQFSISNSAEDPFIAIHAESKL
Method: The α-amylase inhibitory activity of sinigrin was determined according to a previously reported method with slight modifications. Briefly, 40 μL of a solution of the test inhibitor and 40 μL of enzyme solution (α-amylase from porcine pancreas (Sigma A3176-500KU, 089K1661) in a buffer of 0.02 M sodium phosphate at pH 6.9 with 0.006 M sodium chloride) were added to a 1.5-mL Eppendorf tube and incubated for 10 min at room temperature. […] Then, 100 μL of DNSA colouring reagent (10 g of sodium potassium tartrate, 1 g of 3,5-dinitrosalicylic acid and 20 mL of 2 N NaOH to a final volume of 100 mL in distilled water) was added, and the mixture was incubated in a boiling water bath for 5 min. After cooling to room temperature, the reaction mixture was diluted to 500 μL using distilled water, and the absorbance was recorded at 540 nm. For non-enzymatic reactions, the assays were performed with a blank containing all of the components except the enzyme. The values of the % inhibition and IC50 were calculated from the results of the assays using the same procedure as that described for the α-glucosidase inhibition assays.

[5] = DPPH free radical scavenging assay; conditions: 100 µg/mL
Method: Radical scavenging activity was determined by modifying a previously reported 2,2-diphenyl-1-picrylhydrazyl (DPPH) assay. The assay solution consisted of 100 µL of DPPH solution (150 µM), 20 µL of the test compounds solution at increasing concentrations, and enough DMSO to bring the volume of solution in each well to 200 µL. The reaction mixture was then incubated for 30 min at room temperature. Ascorbic acid (vitamin C) was used as a reference inhibitor. The assay measurements were carried out using a micro plate reader (OPTIMax, Tunable) at 520 nm. The reaction rates were compared, and the percentages of inhibition caused by the presence of the test inhibitors were calculated. Each concentration was analysed in three independent experiments run in triplicate.

[6] = biological target: α-glucosidase (Saccharomyces cerevisiae, UniProt P53341); assay: Kinetic study of α-glucosidase (Lineweaver-Burk); type: biochemical; conditions: Lineweaver-Burk plot
α-glucosidase, sequence (P53341 whole entry): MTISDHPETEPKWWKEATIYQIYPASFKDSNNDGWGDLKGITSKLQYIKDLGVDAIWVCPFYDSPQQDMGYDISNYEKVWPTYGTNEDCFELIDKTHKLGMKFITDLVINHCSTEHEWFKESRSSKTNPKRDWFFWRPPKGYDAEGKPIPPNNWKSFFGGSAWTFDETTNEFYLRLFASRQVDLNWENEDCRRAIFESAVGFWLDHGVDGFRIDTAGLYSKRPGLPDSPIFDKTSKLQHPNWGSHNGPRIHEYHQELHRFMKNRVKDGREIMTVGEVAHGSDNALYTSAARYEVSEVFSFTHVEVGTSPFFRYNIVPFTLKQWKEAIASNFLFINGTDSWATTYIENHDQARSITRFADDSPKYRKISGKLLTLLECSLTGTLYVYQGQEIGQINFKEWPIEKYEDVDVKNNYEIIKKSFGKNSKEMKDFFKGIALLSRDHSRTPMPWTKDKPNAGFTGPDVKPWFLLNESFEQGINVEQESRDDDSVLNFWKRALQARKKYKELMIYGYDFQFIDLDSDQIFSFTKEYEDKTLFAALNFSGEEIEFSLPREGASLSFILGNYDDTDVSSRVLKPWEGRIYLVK
Method: To understand the inhibition mechanism of the synthesized compounds on α-glucosidase, an inhibition kinetics study was performed. […] In our evaluation of the kinetics of the enzyme, the Lineweaver-Burk plot of 1/V versus 1/[S] in the presence of different inhibitor concentrations gave a series of straight lines. […] Km increases with increasing concentration, while Vmax remains essentially constant.
A series of experiments was performed to calculate the inhibition kinetics of 5g. The tested concentrations of 5g were 0.00, 0.15 and 0.3. The concentration of substrate, p-nitrophenyl-α-D-glucopyranoside, was between 0.3125 and 10 mM in all the kinetics experiments. The pre-incubation and measurement times were the same as those discussed in the α-glucosidase inhibition assay procedure. The maximal initial velocity was determined from the initial linear portion of absorbance in the first five minutes following the addition of the enzyme at 30 s intervals. The type of inhibition of the enzyme was assessed by preparing Lineweaver-Burk plots of the inverse of the velocities (1/V) versus the inverse of the substrate concentration 1/[S] mM^−1. The EI dissociation constant, Ki, was determined by the secondary plot of 1/V versus the inhibitor concentration.

| melting point [°C] | IC50 [4] [µM] | SMILES | inhibition of maltase [1] [%] | inhibition of isomaltase [2] [%] | inhibition of glucoamylase [3] [%] | Free radical scavenging activity (%) [5] | type of inhibition [6] |
| --- | --- | --- | --- | --- | --- | --- | --- |
|  |  | C[C@H]1O[C@H](O[C@H]2[C@H](O)[C@@H](O)[C@@H](O[C@H]3[C@H](O)[C@@H](O)C(O)O[C@@H]3CO)O[C@@H]2CO)[C@H](O)[C@@H](O)[C@@H]1N[C@H]1C=C(CO)[C@@H](O)[C@H](O)[C@H]1O (some centres unmarked) [Acarbose, acarbose] | 60 | 10 | 90 |  |  |
| 222 | 28.4 ± 2.17 | Oc1ccc(/N=N/c2cccc(Cl)c2Cl)cc1/C=N/N=C/c1cc(/N=N/c2cccc(Cl)c2Cl)ccc1O [Compound 5b, (E)-2,2’-((1E,1’E)-Hydrazine-1,2-diylidenebis(methanylylidene))bis(4-((E)-(2,3-dichlorophenyl)diazenyl)phenol)] |  |  |  |  |  |
| 195 | 9.55 ± 0.73 | Oc1ccc(/N=N/c2ccccc2Cl)cc1/C=N/N=C/c1cc(/N=N/c2ccccc2Cl)ccc1O [Compound 5c, (E)-2,2’-((1E,1’E)-Hydrazine-1,2-diylidenebis(methanylylidene))bis(4-((E)-(2-chlorophenyl)diazenyl)phenol)] |  |  |  |  |  |
| 205 | 9.72 ± 0.863 | Oc1ccc(/N=N/c2ccc(Cl)cc2)cc1/C=N/N=C/c1cc(/N=N/c2ccc(Cl)cc2)ccc1O [Compound 5d, (E)-2,2’-((1E,1’E)-Hydrazine-1,2-diylidenebis(methanylylidene))bis(4-((E)-(4-chlorophenyl)diazenyl)phenol)] |  |  |  | did not show significant scavenging potencies |  |
| 225 | 28.5 ± 2.08 | NS(=O)(=O)c1ccc(/N=N/c2ccc(O)c(/C=N/N=C/c3cc(/N=N/c4ccc(S(N)(=O)=O)cc4)ccc3O)c2)cc1 [Compound 5e, 4,4’-((1E,1’E)-(((1E,1’E)-Hydrazine-1,2-diylidenebis(methanylylidene))bis(4-hydroxy-3,1-phenylene))bis(diazene-2,1-diyl))dibenzenesulfonamide] |  |  |  |  |  |
| 240 | 4.29 ± 0.328 | O=S(=O)([O-])c1ccc(/N=N/c2ccc(O)c(/C=N/N=C/c3cc(/N=N/c4ccc(S(=O)(=O)[O-])cc4)ccc3O)c2)cc1.[Na+].[Na+] [Compound 5f, Sodium 4,4’-((1E,1’E)-(((1E,1’E)-hydrazine-1,2-diylidenebis(methanylylidene))bis(4-hydroxy-3,1-phenylene))bis(diazene-2,1-diyl))dibenzenesulfonate] |  |  |  | did not show significant scavenging potencies |  |
| 210 | 0.59 ± 0.012 | Oc1ccc(/N=N/c2cccc(Cl)c2)cc1/C=N/N=C/c1cc(/N=N/c2cccc(Cl)c2)ccc1O [Compound 5h, (E)-2,2’-((1E,1’E)-Hydrazine-1,2-diylidenebis(methanylylidene))bis(4-((E)-(3-chlorophenyl)diazenyl)phenol)] |  |  |  |  |  |

| SMILES | melting point [°C] | IC50 [4] [µM] | inhibition of maltase [1] [%] | inhibition of isomaltase [2] [%] | inhibition of glucoamylase [3] [%] | Free radical scavenging activity (%) [5] | type of inhibition [6] |
| --- | --- | --- | --- | --- | --- | --- | --- |
| O=[N+]([O-])c1ccc(/N=N/c2ccc(O)c(/C=N/N=C/c3cc(/N=N/c4ccc([N+](=O)[O-])cc4[N+](=O)[O-])ccc3O)c2)c([N+](=O)[O-])c1 [Compound 5a, (E)-2,2’-((1E,1’E)-Hydrazine-1,2-diylidenebis(methanylylidene))bis(4-((E)-(2,4-dinitrophenyl)diazenyl)phenol)] | 275 | 8.54 ± 0.653 |  |  |  |  |  |
| O=[N+]([O-])c1ccc(/N=N/c2ccc(O)c(/C=N/N=C/c3cc(/N=N/c4ccc([N+](=O)[O-])cc4)ccc3O)c2)cc1 [Compound 5g, (E)-2,2’-((1E,1’E)-Hydrazine-1,2-diylidenebis(methanylylidene))bis(4-((E)-(4-nitrophenyl)diazenyl)phenol)] | 215 | 0.438 ± 0.042 |  |  |  | did not show significant scavenging potencies | competitive |
